Values quoted from earlier work, collected in US20240180994A1 (priority 2021, published 2024).

Tests used:
[1] = biological target: SARS-CoV-2 protease 3CL pro (Severe acute respiratory syndrome coronavirus 2, UniProt P0DTD1)
[2] = test system: HIV-luc/SARS pseudotyped virus; details: read-out: effective dose at 50% of inhibition (EC50%)
[3] = test system: wild-type SARS-CoV
[4] = biological target: cathepsin L (Homo sapiens, UniProt P07711)
[5] = biological target: SARS-CoV-2 membrane (M) protein (Severe acute respiratory syndrome coronavirus 2, UniProt P0DTC5); details: modeling studies
[6] = test system: TNF-α, IL-6 and IL-1β; details: daily oral 10-30 mg/kg for 4 weeks, aged rats
[7] = test system: TNF-α; details: mouse, in vivo
[8] = test system: TNF-α, IL-1β, MAPKs (p38); details: 100 mg/kg, spinal cord injury models

## O=c1c(O)c(-c2ccc(O)cc2)oc2cc(O)cc(O)c12 [Kaempferol]
[1]
  IC50: 116 µM

## O=c1cc(-c2ccc(O)c(O)c2)oc2cc(O)cc(O)c12 [Luteolin]
[2]
  EC50: 9.02 µM
[3]; read-out: EC50% inhibition of cytopathic effect, wild-type SARS-CoV, MTT assay
  EC50: 10.6 µM
[3]; relates to both EC50 values of luteolin
  EC50 values times less than cytotoxicity on the cells in vitro: 15 times

## O=c1c(O)c(-c2ccc(O)c(O)c2)oc2cc(O)cc(O)c12 [Quercetin]
[4]
  cathepsin L inhibition: inhibit cathepsin L

## O=C(O)/C=C/c1ccc(O)c(O)c1 [caffeic acid]
[5]
  affinity with M protein: higher affinity with the M protein

## CC(/C=C/C=C(\C)C(=O)O[C@@H]1O[C@H](CO[C@@H]2O[C@H](CO)[C@@H](O)[C@H](O)[C@H]2O)[C@@H](O)[C@H](O)[C@H]1O)=C\C=C\C=C(C)\C=C\C=C(/C)C(=O)O[C@@H]1O[C@H](CO[C@@H]2O[C@H](CO)[C@@H](O)[C@H](O)[C@H]2O)[C@@H](O)[C@H](O)[C@H]1O [crocin]
[6]
  pro-inflammatory cytokines in renal tissue and serum: significantly reduced pro-inflammatory cytokines, TNF-α, IL-6 and IL-1β

## COc1cc(/C=C/C(=O)O)ccc1O [ferulic acid]
[5]
  affinity with M protein: higher affinity with the M protein

## COc1ccc([C@@H]2CC(=O)c3c(O)cc(O[C@@H]4O[C@H](CO[C@@H]5O[C@@H](C)[C@H](O)[C@@H](O)[C@H]5O)[C@@H](O)[C@H](O)[C@H]4O)cc3O2)cc1O [hesperidin]
[7]
  TNF-α in LPS-treated mice: decease TNF-α in mice treated with LPS

## CC1=C(C=O)C(C)(C)CC=C1 [safranal]
[8]
  expression of inflammatory cytokines: decreased the expression of the inflammatory cytokines TNF-α, IL-1β
